Measurements from the kinase profiling compilation of Christmann-Franck et al. (2016).
One block for each compound: values may come before it.

What was measured:
Assay in all cases: radiometric filter-binding kinase assay, Kinase HotSpot
Conditions in all cases: compound 0.5 µM; ATP 10 µM
BTK (human) = BTK (human) (UniProt Q06187)
CAMK2A (human) = CAMK2A (human) (UniProt Q9UQM7)
CAMK2G (human) = CAMK2G (human) (UniProt Q13555)
CSF1R (human) = CSF1R (human) (UniProt P07333)
CSNK1G1 (human) = CSNK1G1 (human) (UniProt Q9HCP0)
CSNK1G2 (human) = CSNK1G2 (human) (UniProt P78368)
CSNK2A2 (human) = CSNK2A2 (human) (UniProt P19784)
DMPK (human) = DMPK (human) (UniProt Q09013)
DYRK1A (human) = DYRK1A (human) (UniProt Q13627)
DYRK3 (human) = DYRK3 (human) (UniProt O43781)
EPHA1 (human) = EPHA1 (human) (UniProt P21709)
EPHA8 (human) = EPHA8 (human) (UniProt P29322)
EPHB3 (human) = EPHB3 (human) (UniProt P54753)
FGFR3 (human) = FGFR3 (human) (UniProt P22607)
FGFR4 (human) = FGFR4 (human) (UniProt P22455)
GSK3B (human) = GSK3B (human) (UniProt P49841)
HIPK1 (human) = HIPK1 (human) (UniProt Q86Z02)
ITK (human) = ITK (human) (UniProt Q08881)
JAK3 JH1 JH2 (human) = JAK3 JH1 JH2 (human) (UniProt P52333)
MAP3K5 (human) = MAP3K5 (human) (UniProt Q99683)
MAP4K4 (human) = MAP4K4 (human) (UniProt O95819)
MARK3 (human) = MARK3 (human) (UniProt P27448)
MERTK (human) = MERTK (human) (UniProt Q12866)
MINK1 (human) = MINK1 (human) (UniProt Q8N4C8)
MUSK (human) = MUSK (human) (UniProt O15146)
MYLK2 (human) = MYLK2 (human) (UniProt Q9H1R3)
NEK3 (human) = NEK3 (human) (UniProt P51956)
NEK7 (human) = NEK7 (human) (UniProt Q8TDX7)
NUAK1 (human) = NUAK1 (human) (UniProt O60285)
OXSR1 (human) = OXSR1 (human) (UniProt O95747)
PBK (human) = PBK (human) (UniProt Q96KB5)
PIM1 (human) = PIM1 (human) (UniProt P11309)
PIM3 (human) = PIM3 (human) (UniProt Q86V86)
PLK3 (human) = PLK3 (human) (UniProt Q9H4B4)
PNCK (human) = PNCK (human) (UniProt Q6P2M8)
PRKACA (human) = PRKACA (human) (UniProt P17612)
RAF1 (human) = RAF1 (human) (UniProt P04049)
SRMS (human) = SRMS (human) (UniProt Q9H3Y6)
STK25 (human) = STK25 (human) (UniProt O00506)
STK33 (human) = STK33 (human) (UniProt Q9BYT3)
ULK1 (human) = ULK1 (human) (UniProt O75385)
WEE1 (human) = WEE1 (human) (UniProt P30291)

Sequence of GSK3B (human) (P49841 whole entry, looked up): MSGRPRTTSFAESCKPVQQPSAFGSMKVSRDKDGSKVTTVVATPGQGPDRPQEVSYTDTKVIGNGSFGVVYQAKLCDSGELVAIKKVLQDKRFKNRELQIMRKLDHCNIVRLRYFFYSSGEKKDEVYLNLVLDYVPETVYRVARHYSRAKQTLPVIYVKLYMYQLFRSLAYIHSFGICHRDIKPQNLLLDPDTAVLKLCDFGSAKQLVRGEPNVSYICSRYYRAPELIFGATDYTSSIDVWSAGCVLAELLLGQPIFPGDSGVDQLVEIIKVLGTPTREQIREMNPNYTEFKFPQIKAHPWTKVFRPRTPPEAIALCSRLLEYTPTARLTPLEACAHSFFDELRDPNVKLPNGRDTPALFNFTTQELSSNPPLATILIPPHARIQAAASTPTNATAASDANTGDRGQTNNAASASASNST
Sequence of MAP3K5 (human) (Q99683 whole entry, looked up): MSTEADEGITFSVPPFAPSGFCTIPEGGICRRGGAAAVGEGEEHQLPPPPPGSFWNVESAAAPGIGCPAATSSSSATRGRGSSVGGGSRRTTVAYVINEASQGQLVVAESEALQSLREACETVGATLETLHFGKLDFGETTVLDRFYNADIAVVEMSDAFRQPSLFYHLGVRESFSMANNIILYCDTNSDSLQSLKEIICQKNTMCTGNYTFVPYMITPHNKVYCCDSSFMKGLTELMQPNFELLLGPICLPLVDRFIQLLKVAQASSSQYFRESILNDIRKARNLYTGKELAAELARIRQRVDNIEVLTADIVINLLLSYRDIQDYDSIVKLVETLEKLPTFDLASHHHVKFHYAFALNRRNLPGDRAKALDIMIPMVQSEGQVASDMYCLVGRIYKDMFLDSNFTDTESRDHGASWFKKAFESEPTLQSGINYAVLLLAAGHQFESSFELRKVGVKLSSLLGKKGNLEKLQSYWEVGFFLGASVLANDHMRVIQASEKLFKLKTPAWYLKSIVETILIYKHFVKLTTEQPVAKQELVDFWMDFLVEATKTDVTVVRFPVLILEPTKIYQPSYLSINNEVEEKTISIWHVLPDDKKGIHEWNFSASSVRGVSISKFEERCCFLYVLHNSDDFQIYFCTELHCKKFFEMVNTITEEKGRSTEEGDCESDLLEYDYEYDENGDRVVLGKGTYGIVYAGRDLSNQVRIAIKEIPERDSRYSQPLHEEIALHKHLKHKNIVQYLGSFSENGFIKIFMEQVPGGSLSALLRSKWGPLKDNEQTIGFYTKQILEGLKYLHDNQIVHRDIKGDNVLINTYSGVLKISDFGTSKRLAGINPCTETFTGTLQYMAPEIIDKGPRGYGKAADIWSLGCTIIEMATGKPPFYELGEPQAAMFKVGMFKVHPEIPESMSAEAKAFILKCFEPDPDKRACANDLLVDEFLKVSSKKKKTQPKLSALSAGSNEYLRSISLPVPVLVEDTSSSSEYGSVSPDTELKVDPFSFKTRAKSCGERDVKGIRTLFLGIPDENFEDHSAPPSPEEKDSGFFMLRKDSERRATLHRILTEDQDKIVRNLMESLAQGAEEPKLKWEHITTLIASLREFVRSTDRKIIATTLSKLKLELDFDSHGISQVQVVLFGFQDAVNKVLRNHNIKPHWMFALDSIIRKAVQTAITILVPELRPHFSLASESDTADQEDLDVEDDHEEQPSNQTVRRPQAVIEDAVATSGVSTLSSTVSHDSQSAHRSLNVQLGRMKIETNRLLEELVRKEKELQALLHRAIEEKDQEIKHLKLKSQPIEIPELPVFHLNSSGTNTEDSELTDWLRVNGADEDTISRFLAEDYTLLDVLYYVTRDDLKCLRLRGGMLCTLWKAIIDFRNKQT
Sequence of MINK1 (human) (Q8N4C8 whole entry, looked up): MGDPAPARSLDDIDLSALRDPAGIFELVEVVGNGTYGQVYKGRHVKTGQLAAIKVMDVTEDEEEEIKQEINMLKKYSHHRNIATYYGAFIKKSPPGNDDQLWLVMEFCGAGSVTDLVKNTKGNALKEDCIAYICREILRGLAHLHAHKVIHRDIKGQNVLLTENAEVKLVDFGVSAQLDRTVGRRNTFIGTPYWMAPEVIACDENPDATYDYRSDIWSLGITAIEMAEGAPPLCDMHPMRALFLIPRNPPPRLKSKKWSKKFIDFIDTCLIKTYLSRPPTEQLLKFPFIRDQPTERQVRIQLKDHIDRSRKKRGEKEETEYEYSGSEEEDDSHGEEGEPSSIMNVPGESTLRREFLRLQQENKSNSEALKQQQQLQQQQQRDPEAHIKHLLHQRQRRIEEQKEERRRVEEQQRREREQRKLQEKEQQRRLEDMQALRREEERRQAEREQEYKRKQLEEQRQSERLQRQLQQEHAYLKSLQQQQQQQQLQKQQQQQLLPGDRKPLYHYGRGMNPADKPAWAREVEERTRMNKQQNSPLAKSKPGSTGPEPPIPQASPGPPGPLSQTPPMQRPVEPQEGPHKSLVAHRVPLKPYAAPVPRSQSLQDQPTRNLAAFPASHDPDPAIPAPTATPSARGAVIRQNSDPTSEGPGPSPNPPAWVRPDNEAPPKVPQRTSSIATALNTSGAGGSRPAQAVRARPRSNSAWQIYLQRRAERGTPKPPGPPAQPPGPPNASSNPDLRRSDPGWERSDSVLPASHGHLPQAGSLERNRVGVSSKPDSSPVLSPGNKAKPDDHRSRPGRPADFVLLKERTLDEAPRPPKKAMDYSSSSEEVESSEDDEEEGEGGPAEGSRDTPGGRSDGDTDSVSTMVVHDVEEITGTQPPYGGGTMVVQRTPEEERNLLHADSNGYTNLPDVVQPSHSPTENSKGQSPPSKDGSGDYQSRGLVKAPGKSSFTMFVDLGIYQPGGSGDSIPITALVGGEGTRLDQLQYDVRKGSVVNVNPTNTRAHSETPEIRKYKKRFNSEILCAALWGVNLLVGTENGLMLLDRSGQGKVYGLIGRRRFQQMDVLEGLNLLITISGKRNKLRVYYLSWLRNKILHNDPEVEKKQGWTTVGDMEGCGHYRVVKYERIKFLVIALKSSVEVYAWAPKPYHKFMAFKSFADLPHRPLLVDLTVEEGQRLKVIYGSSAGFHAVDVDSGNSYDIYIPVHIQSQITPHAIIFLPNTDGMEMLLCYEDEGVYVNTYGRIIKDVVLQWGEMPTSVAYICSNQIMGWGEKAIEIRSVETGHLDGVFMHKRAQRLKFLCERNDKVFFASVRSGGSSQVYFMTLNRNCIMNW
Sequence of CSNK2A2 (human) (P19784 whole entry, looked up): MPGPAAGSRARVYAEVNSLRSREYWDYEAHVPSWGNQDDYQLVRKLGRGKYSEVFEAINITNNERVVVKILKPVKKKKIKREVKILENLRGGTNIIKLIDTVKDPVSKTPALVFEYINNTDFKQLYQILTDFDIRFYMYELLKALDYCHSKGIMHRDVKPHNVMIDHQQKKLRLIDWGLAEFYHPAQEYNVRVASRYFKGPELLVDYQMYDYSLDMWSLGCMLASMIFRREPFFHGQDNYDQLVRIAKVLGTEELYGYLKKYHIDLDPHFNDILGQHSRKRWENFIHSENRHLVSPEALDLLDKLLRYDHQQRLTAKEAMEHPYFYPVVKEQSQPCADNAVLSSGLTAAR
Sequence of NEK3 (human) (P51956 whole entry, looked up): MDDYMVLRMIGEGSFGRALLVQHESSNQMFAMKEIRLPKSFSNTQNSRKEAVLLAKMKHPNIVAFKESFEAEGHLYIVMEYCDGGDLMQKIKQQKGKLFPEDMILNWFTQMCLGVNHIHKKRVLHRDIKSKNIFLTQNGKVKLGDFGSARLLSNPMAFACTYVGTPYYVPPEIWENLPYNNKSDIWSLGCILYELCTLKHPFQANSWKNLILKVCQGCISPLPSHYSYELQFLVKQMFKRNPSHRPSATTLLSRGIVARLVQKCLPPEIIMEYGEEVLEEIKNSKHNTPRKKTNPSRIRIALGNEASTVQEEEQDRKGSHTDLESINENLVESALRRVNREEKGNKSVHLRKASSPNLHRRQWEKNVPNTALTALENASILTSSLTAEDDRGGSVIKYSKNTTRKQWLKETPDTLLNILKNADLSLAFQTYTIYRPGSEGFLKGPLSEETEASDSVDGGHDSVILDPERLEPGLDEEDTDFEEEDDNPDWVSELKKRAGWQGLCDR
Sequence of PIM1 (human) (P11309 whole entry, looked up): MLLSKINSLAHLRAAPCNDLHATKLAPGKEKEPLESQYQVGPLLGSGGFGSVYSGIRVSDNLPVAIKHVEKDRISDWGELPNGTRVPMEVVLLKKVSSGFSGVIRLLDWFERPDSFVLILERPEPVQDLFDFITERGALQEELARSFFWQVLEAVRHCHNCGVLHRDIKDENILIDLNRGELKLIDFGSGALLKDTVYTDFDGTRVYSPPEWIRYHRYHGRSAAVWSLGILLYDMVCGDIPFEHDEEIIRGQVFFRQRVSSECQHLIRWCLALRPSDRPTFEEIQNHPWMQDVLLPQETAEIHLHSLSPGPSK
Sequence of PNCK (human) (Q6P2M8 whole entry, looked up): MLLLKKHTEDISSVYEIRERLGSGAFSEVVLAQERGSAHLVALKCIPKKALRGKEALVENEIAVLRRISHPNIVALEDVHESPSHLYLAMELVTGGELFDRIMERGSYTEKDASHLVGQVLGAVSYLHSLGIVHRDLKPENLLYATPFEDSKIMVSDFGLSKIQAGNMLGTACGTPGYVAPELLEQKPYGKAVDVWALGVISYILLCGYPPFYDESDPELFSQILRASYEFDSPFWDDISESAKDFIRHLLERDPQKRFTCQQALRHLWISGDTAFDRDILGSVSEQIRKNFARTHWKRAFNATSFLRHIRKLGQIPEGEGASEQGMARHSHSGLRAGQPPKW

Structure (SMILES): Cn1cnc2cc3c(Nc4cccc(Br)c4)ncnc3cc21
- residual activity (BTK (human)): 86.8%
- residual activity (CAMK2A (human)): 102%
- residual activity (CAMK2G (human)): 104%
- residual activity (CSF1R (human)): 94.4%
- residual activity (CSNK1G1 (human)): 104%
- residual activity (CSNK1G2 (human)): 89.2%
- residual activity (CSNK2A2 (human)): 91.7%
- residual activity (DMPK (human)): 98.4%
- residual activity (DYRK1A (human)): 106%
- residual activity (DYRK3 (human)): 102%
- residual activity (EPHA1 (human)): 84.4%
- residual activity (EPHA8 (human)): 85.4%
- residual activity (EPHB3 (human)): 93.8%
- residual activity (FGFR3 (human)): 98.6%
- residual activity (FGFR4 (human)): 94.1%
- residual activity (GSK3B (human)): 101%
- residual activity (HIPK1 (human)): 108%
- residual activity (ITK (human)): 102%
- residual activity (JAK3 JH1 JH2 (human)): 106%
- residual activity (MAP3K5 (human)): 110%
- residual activity (MAP4K4 (human)): 52.1%
- residual activity (MARK3 (human)): 104%
- residual activity (MERTK (human)): 77.5%
- residual activity (MINK1 (human)): 82.1%
- residual activity (MUSK (human)): 85.3%
- residual activity (MYLK2 (human)): 87.6%
- residual activity (NEK3 (human)): 88.2%
- residual activity (NEK7 (human)): 99.4%
- residual activity (NUAK1 (human)): 90.5%
- residual activity (OXSR1 (human)): 94.6%
- residual activity (PBK (human)): 102%
- residual activity (PIM1 (human)): 73.8%
- residual activity (PIM3 (human)): 104%
- residual activity (PLK3 (human)): 99.8%
- residual activity (PNCK (human)): 101%
- residual activity (PRKACA (human)): 105%
- residual activity (RAF1 (human)): 98.6%
- residual activity (SRMS (human)): 84%
- residual activity (STK25 (human)): 99%
- residual activity (STK33 (human)): 99.3%
- residual activity (ULK1 (human)): 113%
- residual activity (WEE1 (human)): 106%

Structure (SMILES): O=C(CCCc1ccc(-c2ccccc2F)cc1)Nc1ccc(O)cc1
- residual activity (BTK (human)): 98.2%
- residual activity (CAMK2A (human)): 116%
- residual activity (CAMK2G (human)): 109%
- residual activity (CSF1R (human)): 104%
- residual activity (CSNK1G1 (human)): 104%
- residual activity (CSNK1G2 (human)): 99.4%
- residual activity (CSNK2A2 (human)): 78.7%
- residual activity (DMPK (human)): 130%
- residual activity (DYRK1A (human)): 106%
- residual activity (DYRK3 (human)): 94.5%
- residual activity (EPHA1 (human)): 117%
- residual activity (EPHA8 (human)): 114%
- residual activity (EPHB3 (human)): 96.5%
- residual activity (FGFR3 (human)): 103%
- residual activity (FGFR4 (human)): 106%
- residual activity (GSK3B (human)): 99.4%
- residual activity (HIPK1 (human)): 105%
- residual activity (ITK (human)): 85%
- residual activity (JAK3 JH1 JH2 (human)): 92.1%
- residual activity (MAP3K5 (human)): 94.3%
- residual activity (MAP4K4 (human)): 92.9%
- residual activity (MARK3 (human)): 101%
- residual activity (MERTK (human)): 98.8%
- residual activity (MINK1 (human)): 97.3%
- residual activity (MUSK (human)): 93.1%
- residual activity (MYLK2 (human)): 97.8%
- residual activity (NEK3 (human)): 109%
- residual activity (NEK7 (human)): 97.3%
- residual activity (NUAK1 (human)): 96.4%
- residual activity (OXSR1 (human)): 102%
- residual activity (PBK (human)): 90.8%
- residual activity (PIM1 (human)): 97.9%
- residual activity (PIM3 (human)): 104%
- residual activity (PLK3 (human)): 95%
- residual activity (PNCK (human)): 102%
- residual activity (PRKACA (human)): 99.5%
- residual activity (RAF1 (human)): 102%
- residual activity (SRMS (human)): 101%
- residual activity (STK25 (human)): 105%
- residual activity (STK33 (human)): 97%
- residual activity (ULK1 (human)): 106%
- residual activity (WEE1 (human)): 83.7%

Structure (SMILES): Cc1nc2cc3nc(-c4cccs4)cnc3cc2n1C
- residual activity (BTK (human)): 101%
- residual activity (CAMK2A (human)): 105%
- residual activity (CAMK2G (human)): 101%
- residual activity (CSF1R (human)): 63.5%
- residual activity (CSNK1G1 (human)): 92.2%
- residual activity (CSNK1G2 (human)): 103%
- residual activity (CSNK2A2 (human)): 99%
- residual activity (DMPK (human)): 100%
- residual activity (DYRK1A (human)): 99.9%
- residual activity (DYRK3 (human)): 111%
- residual activity (EPHA1 (human)): 87.1%
- residual activity (EPHA8 (human)): 100%
- residual activity (EPHB3 (human)): 101%
- residual activity (FGFR3 (human)): 67.1%
- residual activity (FGFR4 (human)): 96.3%
- residual activity (GSK3B (human)): 109%
- residual activity (HIPK1 (human)): 103%
- residual activity (ITK (human)): 96.7%
- residual activity (JAK3 JH1 JH2 (human)): 107%
- residual activity (MAP3K5 (human)): 98.9%
- residual activity (MAP4K4 (human)): 84.5%
- residual activity (MARK3 (human)): 105%
- residual activity (MERTK (human)): 90.4%
- residual activity (MINK1 (human)): 98.9%
- residual activity (MUSK (human)): 90.6%
- residual activity (MYLK2 (human)): 74.5%
- residual activity (NEK3 (human)): 108%
- residual activity (NEK7 (human)): 86.5%
- residual activity (NUAK1 (human)): 95.3%
- residual activity (OXSR1 (human)): 99.4%
- residual activity (PBK (human)): 98.9%
- residual activity (PIM1 (human)): 103%
- residual activity (PIM3 (human)): 91.2%
- residual activity (PLK3 (human)): 95.6%
- residual activity (PNCK (human)): 102%
- residual activity (PRKACA (human)): 100%
- residual activity (RAF1 (human)): 104%
- residual activity (SRMS (human)): 95.4%
- residual activity (STK25 (human)): 97.3%
- residual activity (STK33 (human)): 91.5%
- residual activity (ULK1 (human)): 84.6%
- residual activity (WEE1 (human)): 86.9%

- residual activity (BTK (human)): 24.1%
- residual activity (CAMK2A (human)): 12.2%
- residual activity (CAMK2G (human)): 35.3%
- residual activity (CSF1R (human)): 21.1%
- residual activity (CSNK1G1 (human)): 89.2%
- residual activity (CSNK1G2 (human)): 85.2%
- residual activity (CSNK2A2 (human)): 28.3%
- residual activity (DMPK (human)): 99.5%
- residual activity (DYRK1A (human)): 82.8%
- residual activity (DYRK3 (human)): 105%
- residual activity (EPHA1 (human)): 82.2%
- residual activity (EPHA8 (human)): 91.9%
- residual activity (FGFR3 (human)): 45.8%
- residual activity (FGFR4 (human)): 65.7%
- residual activity (GSK3B (human)): 12.6%
- residual activity (HIPK1 (human)): 96%
- residual activity (ITK (human)): 34.8%
- residual activity (JAK3 JH1 JH2 (human)): 16.9%
- residual activity (MAP3K5 (human)): 91.2%
- residual activity (MAP4K4 (human)): 11.6%
- residual activity (MARK3 (human)): 75.2%
- residual activity (MERTK (human)): 49.4%
- residual activity (MINK1 (human)): 21%
- residual activity (MUSK (human)): 58%
- residual activity (MYLK2 (human)): 27.3%
- residual activity (NEK3 (human)): 102%
- residual activity (NEK7 (human)): 98.9%
- residual activity (NUAK1 (human)): 2.81%
- residual activity (OXSR1 (human)): 98.6%
- residual activity (PBK (human)): 80.6%
- residual activity (PIM1 (human)): 59.7%
- residual activity (PIM3 (human)): 58.5%
- residual activity (PLK3 (human)): 102%
- residual activity (PNCK (human)): 101%
- residual activity (PRKACA (human)): 89.1%
- residual activity (RAF1 (human)): 100%
- residual activity (SRMS (human)): 102%
- residual activity (STK25 (human)): 74%
- residual activity (STK33 (human)): 22.3%
- residual activity (ULK1 (human)): 98.3%
- residual activity (WEE1 (human)): 82%
Structure (SMILES): O=C1Nc2ccccc2/C1=C1/Nc2ccccc2/C1=N\OCCC(O)CO (configuration not stated)
